8 molecules from PubChem BioAssay (NCI) can be followed below.

What all share (assay): NCI anticancer screen, dose series, 48 h
For test [1], the system named is ACHN renal.
For test [2], the system named is MOLT-4 leukemia.
Test [3] has as its system CAKI-1 renal.
Test [4] deals with SF-295 CNS.
In test [5] the test system is SK-MEL-2 melanoma.
The test system of test [6] is MCF7 breast.
For test [7], the system named is HT29 colon.
Test [8] deals with COLO 205 colon.
The test system of test [9] is OVCAR-5 ovarian.
In test [10] the test system is UACC-257 melanoma.

Values joined by “and” are separate entries in the source; they are usually repeats but may differ in a detail not shown here. Equal entries are not always repeated.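 Interpolation was linear, between the two tested concentrations surrounding the appropriate level; five concentrations were tested over 48 hours in 96-well plates. GI50 = concentration required for 50% inhibition of growth. TGI denotes the concentration required for complete inhibition of growth.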

Consider `Cc1c(C)c2c(c(C)c1NC(=O)/C=C\C(=O)O)CCC(C)(CCCC(C)CCCC(C)CCCC(C)C)O2` (configuration not stated), for which the GI50 is 1700 nM in test [1]; 2060 nM in test [2]; 1490 nM in test [3]; 1320 nM in [4]; 1860 nM in [5]; 2200 nM in [6]. Further, the GI50 in test [7] is 2610 nM; in test [8], 1750 nM; in [9] it was 1720 nM; in [10] it was 1720 nM. For the same molecule, the TGI in test [1] turned out to be 3070 nM; in test [2] it was 7190 nM; in test [3] it was 3120 nM; in test [4], 2770 nM; in test [5] it was 3680 nM; in test [6] it was 5320 nM. For the same molecule, the TGI in test [7] was determined as 8240 nM; in [8] it was 3540 nM; in test [9], 4050 nM; in [10] it was 3830 nM.

For `N=Nc1c(OC(=O)Nc2ccccc2)[nH]c2ccccc12`, the TGI amounted to 36600 nM in test [1]; 32800 nM in [3]; 30200 nM in test [4]; 44600 nM in test [5]; 38800 nM in [6]; 96200 nM in [7]. Moreover, the TGI in test [8] is 42900 nM; in [9], over 100000 nM; in test [10], 92200 nM.

As for `CCCCN(CCCC)c1ccc(C(=N)c2ccc(N(C)C)cc2)cc1`, the GI50 in [1] was 1040 nM; in [3], 356 nM; in [4], 349 nM; in test [5], 829 nM; in [6], 377 nM; in [7], 292 nM. Moreover, the GI50 in [8] was 455 nM; in test [9], 1310 nM; in [10], 562 nM. Also, the TGI in test [1] is 2380 nM; in test [3] it was 1490 nM; in test [4] it was 1340 nM; in test [5] it was 2240 nM; in test [6] it was 1510 nM; in test [7], 1080 nM. Also, the TGI in [8] turned out to be 1650 nM; in test [9] it was 2860 nM; in test [10], 1350 nM.

On to `Cc1onc(-c2c(F)cccc2Cl)c1-c1ncc(-c2ccc(Cl)cc2)o1`, for which the GI50 in test [1] is 5150 nM; in test [2] it was 4610 nM; in [3], 4700 nM; in [4], 8660 nM; in [6] it was 4490 nM; in test [7], 3890 nM. Also, the GI50 is 4110 nM in test [8], 74400 nM in test [9] and 3250 nM in [10]. Besides, the TGI in [1], in [2], in [3], in [4], in test [6] and in [7] was over 100000 nM in each case. Moreover, the TGI in test [8], in [9] and in test [10] was over 100000 nM in each case.

As to `O=C(/C=C/C12c3ccccc3C(c3ccccc31)C1C(=O)N(c3ccccc3)C(=O)C12)c1ccc(Cl)cc1` (configuration not stated), the GI50 is 1390 nM in [1]; 759 nM in [2]; 1020 nM in [3]; 2480 nM in [5]; 885 nM in test [6]; 1860 nM in [7]. Also, the GI50 in test [8] was 1790 nM; in test [9], 1600 nM; in [10], 2130 nM. Further, the TGI is 2810 nM in [1]; over 100000 nM in test [2]; 3520 nM in test [3]; 5860 nM in test [5]; over 100000 nM in test [6]; 7880 nM in test [7]. Further, the TGI in [8] was 3580 nM; in test [9], 4660 nM; in [10] it was 5500 nM.

With `Cc1cc(N2CCN(C)CC2)nc(NCc2cc(Nc3ccnc4cc(Cl)ccc34)ccc2F)n1`, the GI50 in [1] is 1880 nM; in test [2], 1900 nM; in test [3], 2680 nM; in [4], 1680 nM; in test [5] it was 1950 nM; in test [6], 334 nM. The GI50 in test [7] was 1240 nM; in test [8] it was 710 nM; in test [10] it was 2110 nM. Further, the TGI was 3450 nM in test [1]; over 100000 nM in test [2]; 8610 nM in test [3]; 3240 nM in [4]; 3800 nM in [5]; 2750 nM in [6]. For the same molecule, the TGI in test [7] worked out at 3380 nM; in test [8] it was 2120 nM; in test [10] it was 3900 nM.

Take `C/C=C(\C)c1cc(=O)c2c(C)cc3c(c2o1)C(=O)c1c(O)c(C2CC(C)(N(C)C)C(O)C(C)O2)cc(C2CC(N(C)C)C(O)C(C)O2)c1C3=O` (configuration not stated): the TGI is 504 nM in [1]; 15600 nM in test [2]; 5990 nM in test [3]; 12200 nM in test [5]; 14500 nM and 8800 nM in test [6]; 1720 nM and 6460 nM in test [7]. Besides, the TGI in [8] was 4090 nM and 20100 nM; in test [10], 1900 nM and 8550 nM. The GI50 in [2] is 687 nM; in [3] it was 273 nM and 2080 nM; in [5] it was 3670 nM; in test [9], 579 nM and 3790 nM; in test [10], 505 nM and 2590 nM.

Take `COc1ccc(Cl)cc1Nc1nc(C(F)(F)F)ccc1C(=O)N/N=C/c1ccc([N+](=O)[O-])cc1`: the GI50 in test [1] is 2180 nM; in test [2] it was 3820 nM; in test [3], 1460 nM; in test [4] it was 1170 nM; in [6] it was 2200 nM; in test [7], 2200 nM. In addition, the GI50 in [8] was 1650 nM; in test [9], 1730 nM; in test [10] it was 2920 nM. The TGI in test [1] came out at 5420 nM; in test [2], 13200 nM; in test [3], 4740 nM; in [4], 3790 nM; in test [6], 7850 nM; in [7], 5490 nM. Further, the TGI in [8] was found to be 3580 nM; in [9] it was 7590 nM; in test [10], 8700 nM.
